Results published in patent publication US20020193374A1, “Reagents and methods for the diagnosis of CMV dissemination” (priority 2000, published 2002).

Assays:
[1] = target: T1, US28 (Human cytomegalovirus, UniProt P69332); assay: cytoplasmic calcium mobilization in US28-293 cells; type: cell-based, human cytomegalovirus (CMV); set-up: expressed in transfected cells; host or cells: human 293 cells (US28-293 cells); settings: compound added before fractalkine (FIG. 2)
Procedure: For each test, 1×10^6 cells were incubated at 37° C. in the cuvette of a PTI spectrometer, and the ratio of 410/490 nm emission plotted over time (typically 2-3 minutes), with compounds added at 5 seconds, followed by fractalkine at 60 seconds. […] Compounds which inhibited fractalkine binding were tested in this assay for the effects on Ca^2+ in this system.
S-(−)-IBZM (from the RBI division of Sigma Chemical Co., St. Louis, Mo., USA, Catalog No. I-139) was evaluated in the assays described in Examples 1 and 2. The IC50 value was 0.6 μM.

[2] = target: T1, US28; assay: inhibition of 125I-fractalkine binding to US28 expressing cells; set-up: a mouse cell line stably expressing transfected US28 cDNA under the control of a CMV promoter; expressed in transfected cells; species or system human cytomegalovirus (CMV)
Procedure: The US28 expressing cells used in most assays consist of a mouse cell line stably expressing transfected US28 cDNA under the control of a CMV promoter. These cells were cultured in IMDM-5% FBS, and harvested when the concentration was between 0.5-1.0×10^6 cells/mL. Some assays were performed with adherent human 293 cells (US28-293 cells) or membranes. The cells were centrifuged and resuspended in assay buffer (20 mM HEPES, 140 mM NaCl, 1 mM CaCl2, 5 mM MgCl2, and with 0.2% bovine serum albumin) to a concentration of 5.6×10^6 cells/mL. Using the Multi-Probe automated system, set up with 8 assay plates at a time, first 0.09 mL of cells was added to the assay plates containing the compounds. The final concentration of the compounds was 5 μg/mL each (1 μg/mL Comgenex). Then 0.09 mL of ^125I-fractalkine diluted in assay buffer (final concentration ˜[…], with ˜30,000 cpm per well) was added, the plates sealed and incubated for approximately 3 hours at 4 degrees C. on a shaker platform. The assay plates were harvested using Packard filter plates, pre-soaked in PEI solution, on the vacuum harvest apparatus. Scintillation fluid (35 μL) was added to all wells, the plates were sealed and counted in a Top Count scintillation counter. […]
S-(−)-IBZM (from the RBI division of Sigma Chemical Co., St. Louis, Mo., USA, Catalog No. I-139) was evaluated in the assays described in Examples 1 and 2. […]

[3] = test system: chemokine receptors; assay: binding specificity among chemokine receptors tested; settings: all chemokine receptors tested
[4] = target: T1, US28; assay: reversibility of binding to US28, competition assay with fractalkine; set-up: a mouse cell line stably expressing transfected US28 cDNA under the control of a CMV promoter; expressed in transfected cells; species or system human cytomegalovirus (CMV); settings: pre-incubated with US28 expressing cells at 0-10 μg/mL, removed by competition with fractalkine (FIG. 3)
Procedure: FIG. 3 illustrates the reversibility of IBZM binding to US28. In this figure, IBZM is pre-incubated with US28 expressing cells (at concentrations of 0-10 μg/mL) and removed by competition with fractalkine.
In this assay, IBZM is pre-incubated with US28 expressing cells (at concentrations of 0-10 μg/mL) and removed by competition with fractalkine (see FIG. 3).

T1 sequence (P69332 whole entry): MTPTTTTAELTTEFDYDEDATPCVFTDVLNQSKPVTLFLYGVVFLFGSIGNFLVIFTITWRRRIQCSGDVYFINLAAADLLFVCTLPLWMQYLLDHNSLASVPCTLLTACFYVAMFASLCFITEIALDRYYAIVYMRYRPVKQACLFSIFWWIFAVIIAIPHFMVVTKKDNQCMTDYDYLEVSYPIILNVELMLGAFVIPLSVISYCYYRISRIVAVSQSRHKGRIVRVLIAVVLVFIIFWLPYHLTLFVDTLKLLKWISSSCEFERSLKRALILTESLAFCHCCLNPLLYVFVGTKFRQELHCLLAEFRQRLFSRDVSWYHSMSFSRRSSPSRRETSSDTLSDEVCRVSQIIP

CCN1CCC[C@H]1CNC(=O)c1c(OC)ccc(I)c1O [IBZM, S(−)-3-Iodo-2-hydroxy-6-methoxy-N[(1-ethyl-2-pyrrolidinyl)methyl]benzamide]
mode of action in calcium mobilization [1]: competitive agonist | IC50 [2]: 600 nM | specificity of binding among chemokine receptors [3]: bind specifically to US28 | reversibility of binding to US28 [4]: reversible
